Results as given in patent US20250177357A1, “METHODS FOR TREATING HYPERTROPHIC CARDIOMYOPATHY” (priority 2021, published 2025).

Experiments:
Assay type in all cases: in vivo, human
[1] = tested on: patients with symptomatic oHCM; assay: Open-label extension trial in oHCM: safety
From the text: An open-label extension clinical trial of CK-274 in patients with symptomatic oHCM was initiated.
Patients who completed the study as described in Example 2 and had not developed atrial fibrillation were eligible to enroll in the study. Echo-guided dose titration based on site reads was managed by the investigator and could occur at any time during the trial, as described below.
Each patient received Dose 1 of CK-274 once daily for 2 weeks. […] Patients were up-titrated to Dose 2 if either of the following conditions were met on echocardiography: (1) resting LVOT-G≥30 mmHg and the biplane LVEF≥50%; or (2) resting LVOT-G<30 mmHg, post-Valsalva LVOT-G≥50 mmHg, and the biplane LVEF≥50%. Otherwise, the patient remained on 5 mg of CK-274. If LVEF was […], treatment was discontinued. If LVEF was <40%, treatment is interrupted.
Ambulatory cardiac monitoring is performed on weeks 48, 96, 144, 192 and 240. Cardiac magnetic resonance is monitored at weeks 48, 144 and 240. (See FIG. 26).

[2] = Phase 1 plasma pharmacokinetics, multiple-ascending dose cohorts; conditions: for CLss/F, mean ± SD: n = 6
Method: Multiple-ascending dose (MAD) cohorts. The MAD cohorts also used a randomized, double-blind, placebo-controlled, sequential design.
Pharmacokinetic analyses. For all study groups, blood samples for PK assessment were obtained pre-dose, up to 12 times daily on day 1, and then at regular intervals throughout the study. Blood samples were collected according to the following schedule: SAD Cohorts: Day 1: pre-dose and 0.25, 0.5, 1, 1.5, 2, 2.5, 3, 4, 6, 8, 12, 16, 24, 36, 48, 72, 96, and 216 h post dose. MAD Cohorts (14-day Dosing): Day 1: pre-dose and 0.25, 0.5, 1, 1.5, 2, 2.5, 3, 4, 6, 8, and 12 h post dose; Days 2, 4, 5, 6, and 9: pre-dose (corresponding to trough samples following dosing on days 1, 3, 4, 5, and 8) and 1.5 h post dose; Days 3, 7, 8, 10, 11, 12, and 13: pre-dose (corresponding to trough samples following dosing on days 2, 6, 7, 9, 10, 11, and 12); Day 14: pre-dose and 0.25, 0.5, 1.5, 2, 2.5, 3, 4, 6, 8, 12, 16, 24, 36, 48, 72, and 168 h post dose. MAD Cohort (17-Day Dosing): Day 1: pre-dose and 0.25, 0.5, 1, 1.5, 2, 2.5, 3, 4, 6, 8, and 12 h post dose; Days 2, 4, 5, 6, and 9: pre-dose (corresponding to trough samples following dosing on days 1, 3, 4, 5, and 8) and 1.5 h post dose; Days 3, 7, 8, 10, 11, 12, 13, 14, 15, and 16: pre-dose (corresponding to trough samples following dosing on days 2, 6, 7, 9, 10, 11, and 12); Day 17: pre-dose and 0.25, 0.5, 1.5, 2, 2.5, 3, 5, 7, 9, 12, 24, 36, 48, 72, and 168 h post dose. CYPD6-PM Cohort: Day 1: pre-dose and 0.25, 0.5, 1, 1.5, 2, 2.5, 3, 4, 6, 8, 12, 16, 24, 36, 48, 72, 96, 216, 312, and 552 h post dose. Food-Effect Cohort: Day 1: pre-dose and 0.25, 0.5, 1, 1.5, 2, 2.5, 3, 4, 6, 8, 12, 16, 24, 36, 48, 72, 96, 144, and 216 h post dose. Standard non-compartmental methods were used to calculate PK parameters using Phoenix® WinNonlin® Version 7.0; actual sample collection times were utilized.
For the MAD cohort, the parameters were AUC24 and Cmax on day 1, plus AUC to the […] (AUCtau) and Cmax on day 14 or 17. The statistical linear relationship between the ln-transformed PK parameters and the ln-transformed dose was verified by including the quadratic (ln Dose)^2 and cubic (ln Dose)^3 effects. […] The dose-proportionality analysis was performed using SAS® PROC MIXED.
An analysis of variance (ANOVA) model was conducted separately for each dose level; day was included as the fixed effect. Helmert contrasts were developed such that each time-point was compared with the mean of the subsequent time-points.

[3] = tested on: patients with symptomatic obstructive HCM (oHCM); assay: Phase 2 trial in oHCM: safety
From the text: Patients up-titrated to Dose 2 if either of the following conditions were met on echocardiography: (1) resting LVOT-G≥30 mmHg and the biplane LVEF≥50%; or (2) resting LVOT-G<30 mmHg, post-Valsalva LVOT-G≥50 mmHg, and the biplane LVEF≥50%. Otherwise, the patient remains on Dose 1. If LVEF is <50% at Week 2, the patient was down-titrated to placebo.
Patients were escalated to the next higher dose if either of the following conditions were met on echocardiography: (1) resting LVOT-G≥30 mmHg and the biplane LVEF≥50%; or (2) resting LVOT-G<30 mmHg, post-Valsalva LVOT-G≥50 mmHg, and the biplane LVEF≥50%. Otherwise, the patient remained on the same dose. If LVEF was <50% at Week 4, the patient was returned to a prior dose level or to placebo if the patient was on Dose 1.

[4] = Phase 1 plasma pharmacokinetics, CYP2D6 poor metabolizer cohort; conditions: CYP2D6 poor metabolizers, single 10 mg, n = 7
Method: CYP2D6 poor metabolizer cohort.
CYP2D6 genotypes were determined at screening for all study participants; those identified as CYP2D6-PMs were excluded from the SAD and MAD cohorts but were invited to participate in the CYP2D6-PM cohort. The first individual in the CYP2D6-PM cohort was dosed after the SAD 25-mg cohort (FIG. 2). […] Nine participants were randomized (7:2) with a sentinel dosing group consisting of the first 2 participants treated.
Pharmacokinetic analyses. For all study groups, blood samples for PK assessment were obtained pre-dose, up to 12 times daily on day 1, and then at regular intervals throughout the study. Blood samples were collected according to the following schedule: SAD Cohorts: Day 1: pre-dose and 0.25, 0.5, 1, 1.5, 2, 2.5, 3, 4, 6, 8, 12, 16, 24, 36, 48, 72, 96, and 216 h post dose. MAD Cohorts (14-day Dosing): Day 1: pre-dose and 0.25, 0.5, 1, 1.5, 2, 2.5, 3, 4, 6, 8, and 12 h post dose; Days 2, 4, 5, 6, and 9: pre-dose (corresponding to trough samples following dosing on days 1, 3, 4, 5, and 8) and 1.5 h post dose; Days 3, 7, 8, 10, 11, 12, and 13: pre-dose (corresponding to trough samples following dosing on days 2, 6, 7, 9, 10, 11, and 12); Day 14: pre-dose and 0.25, 0.5, 1.5, 2, 2.5, 3, 4, 6, 8, 12, 16, 24, 36, 48, 72, and 168 h post dose. […]

For `CCc1nc(-c2ccc3c(c2)CC[C@H]3NC(=O)c2cnn(C)c2)no1` [aficamten, (R)—N-(5-(5-ethyl-1,2,4-oxadiazol-3-yl)-2,3-dihydro-1H-inden-1-yl)-1-methyl-1H-pyrazole-4-carboxamide], the “Patients with TEAE Leading to Dose Reduction” value ([1]; N = 38) was 2 (5%), the “Patients with TEAE Leading to Drug Interruption” value ([1]; N = 38) was 1 (3%) and the “Patients with at Least One Related TEAE” value ([1]; N = 38) was 8 (21%). For the same compound, the “Patients with at Least One Severe TEAE” value ([1]; N = 38) was 1 (3%), the “Patients with at Least One TEAE” value ([1]; N = 38) was 28 (74%) and the “Patients with at Least One TESAE” value ([1]; N = 38) was 2 (5%). For the same compound, the “LVEF of one patient with recurrent alcohol induced atrial fibrillation” value ([1]; on 15 mg of CK-274) was 47%, the “Events of LVEF <50% attributed to CK-274” value ([1]; open-label extension) was “no events” and the “Steady state achieved by the end of day” value ([2]; 5-mg and 7.5-mg doses once daily) was 12 days. The “Steady state achieved by the end of day” value ([2]; 10-mg dose once daily) was 10 days, the CLss/F, mean ± SD ([2]; Day 14, 5 mg qd × 14 Days) was 3.9 ± 0.9 L/h and the CLss/F, mean ± SD ([2]; Day 14, 10 mg qd × 14 Days) was 3.9 ± 0.8 L/h. The CLss/F, mean ± SD ([2]; Day 17, 7.5 mg qd × 17 Days) was 3.1 ± 0.7 L/h, the “Time within which steady state is achieved” value ([2]; once-daily dosing) was at most 2 weeks and the “Patients with LVEF <50%” value ([3]; Cohort 1) was “No patients”. The “Patients with AEs related to study drug (per investigator)” value (from here on “Patients … (per investigator)”) ([3]; Cohort 1, 21 randomized) was 3 (14.3) N (%), the “Patients with TEAEs leading to drug interruption or termination” value (“Patients with TEAEs leading” below) ([3]; Cohort 1, 21 randomized) was 0 N (%) and the “Patients with TESAEs” value ([3]; Cohort 1, 21 randomized) was 2 (9.5) N (%). For the same compound, the “Patients with at least one TEAE” value ([3]; Cohort 1, 21 randomized) was 17 (81) N (%), the “Patients with fatal TEAEs” value ([3]; Cohort 1, 21 randomized) was 0 N (%) and the “TEAE of LVEF <50% (Core Lab)” value ([3]; Cohort 1, 21 randomized) was 0 N (%). For the same compound, the “Patients … (per investigator)” value ([3]; Cohort 2, 20 randomized) was 1 (5.0) N (%), the “Patients with TEAEs leading” value ([3]; Cohort 2, 20 randomized) was 0 N (%) and the “Patients with TESAEs” value ([3]; Cohort 2, 20 randomized) was 0 N (%). The “Patients with at least one TEAE” value ([3]; Cohort 2, 20 randomized) was 15 (75) N (%), the “Patients with fatal TEAEs” value ([3]; Cohort 2, 20 randomized) was 0 N (%) and the “TEAE of LVEF <50% (Core Lab)” value ([3]; Cohort 2, 20 randomized) was 2 (10) N (%). For the same compound, the “Patients with transient LVEF reduction to <50% requiring down titration” value ([3]; Cohort 2, on 20 mg, remaining above 40%) was “one patient”, the “Interruptions or discontinuations of treatment” value ([3]; Cohorts 1 and 2) was “No interruptions or discontinuations” and the “Treatment-related serious adverse events” value ([3]; Cohorts 1 and 2, 10 weeks, listed as CK-274) was “no treatment related serious adverse events”. The “Patients … (per investigator)” value ([3]; Total, 54 patients) was 6 (11.1) N (%), the “Patients with TEAEs leading” value ([3]; Total, 54 patients) was 0 N (%) and the “Patients with TESAEs” value ([3]; Total, 54 patients) was 2 (3.7) N (%). The “Patients with at least one TEAE” value ([3]; Total, 54 patients) was 41 (75.9) N (%), the “Patients with fatal TEAEs” value ([3]; Total, 54 patients) was 0 N (%) and the “TEAE of LVEF <50% (Core Lab)” value ([3]; Total, 54 patients) was 2 (3.7) N (%). For the same compound, the “Time for LVEF to return towards baseline” value ([3]; both cohorts) was “within two weeks after the end of treatment” and the “CL/F, mean ± SD” value [4] was 3.6 ± 1.4 L/h.
